In patent US20080200393A1, “Method and Composition For Treating Angiogenesis and For Preventing Cancer Progression and Metastasis Comprising a Prostate Secretory Protein (Psp94) Family Member” (Ambrillia Biopharma Inc., priority 2004, published 2008):
“And” between values parts separate entries of the source, which are not always exact repeats. Equal values may be shown once. Where no end group is shown, it is not given here.

What was measured:
[1] = system: total MMP-9 (human active and pro-MMP-9); assay: Total MMP-9 ELISA on plasma of patients, Phase IIa clinical trial; assay type: in vivo; details: for MMP-9 level in plasma, D27C3: day 27 of cycle 3
Description: The clinical trial is a multiple ascending dose, open-label, Phase IIa study evaluating the safety and tolerability of PCK3145 derivative; SEQ ID NO.:7 administered intravenously in patients with metastatic hormone resistant prostatic cancer (HRPC). The study is not randomized. Patients have been enrolled sequentially and chronologically.
The drug was therefore administered to patients characterized as having metastatic adenocarcinoma of the prostate, stage IV prostatic cancer and as having a metastatic hormone resistant prostatic cancer. Four patients per cohort and 4 ascending doses were evaluated. The ascending doses were 5, 20, 40 and 80 mg/m^2. The dose escalation decision has been based on dose-limiting toxicity (DLT).
The 33-day cycle of treatment consisted of a PCK3145 derivative; SEQ ID NO.:7 administration three times per week (day 1, 3 and 5) for 26 days, followed by a 7 day post-treatment observation period. The maximum tolerated dose (MTD) is the dose level below the one inducing grade 3 or 4 drug related toxicity (DLT) in two patients from a cohort of a minimum of 4 patients. Only DLT's observed during the first cycle have been used for the dose escalation decision.
The treatment period consisted of intravenous administration of the PCK3145 derivative (SEQ ID NO.:5 derivative) i.e., SEQ ID NO.:7, three times per week (day 1, 3 and 5) for 26 consecutive days during which patients were closely monitored and undergone regular examination. After a week of treatment break and in the absence of toxicity and disease progression, patients optionally received additional treatment cycles.
Biological samples were drawn during different time points of the study for the purpose of safety monitoring and have been assayed for MMP-9 levels. Plasma samples were placed on dry ice and stored frozen (approximately −70° C.) and subsequently analyzed for total MMP-9 levels.
MMP-9 assay methodology. An Elisa assay measuring total MMP-9, i.e., human active and pro-MMP-9, (Quantikine®), Cat. No.: DMP900, R&D Systems Inc.) was performed on plasma-heparin samples. Plasma samples have been collected from individuals at day 1 (before treatment) and at day 27 of each treatment cycle.
The Quantikine® MMP-9 immunoassay is a solid phase ELISA designed to measure total MMP-9 (92 kDa pro- and 82 kDa active forms) in serum, plasma, saliva, urine and cell culture supernatants. It is calibrated with CHO-cells expressed recombinant human pro-MMP-9 and the antibodies were raised against the recombinant factor. Both antibodies also recognize recombinant human active MMP-9.
The assay employs the quantitative sandwich enzyme immunoassay technique. A monoclonal antibody specific for MMP-9 has been pre-coated onto a microplate. Standards and samples are added into the wells, and MMP-9 is thus bound by the immobilized antibody. After washing away unbound substances, an enzyme-linked polyclonal antibody specific for MMP-9 is added to the wells. Following a wash to remove unbound antibody-enzyme reagent, a substrate solution is added to the wells and color develops in proportion to the amount of total MMP-9 (pro and/or active) bound in the initial step. The color development is stopped and the intensity of the color is measured.

HUVEC = assay: Matrigel endothelial cell tube formation assay; assay type: cell-based, Human; details: HUVEC on Matrigel, 0-300 μg/ml, serum-free media, 24 hours
Procedure: Matrigel endothelial cell tube formation assay Matrigel (12.5 mg/ml) was thawed at 4° C., and 50 μl were quickly added to each well of a 96-well plate and allowed to solidify for 10 min at 37° C. […] The formation of capillary-like structures was examined microscopically and pictures (50×) were taken using a Retiga 1300 camera and a Zeiss Axiovert S100 microscope. The extent to which capillary-like structures formed in the gel was quantified by analysis of digitized images to determine the thread length of the capillary-like network, using a commercially available image analysis program (Northern Eclipse).
Matrigel endothelial cell tube formation assay. […] The extent to which capillary-like structures formed in the gel was quantified by analysis of digitized images using a commercially available image analysis software (Northern Eclipse) (25).
This three dimensional ECM model assay provides physiologically relevant environment for studies of cell morphology, biochemical function, and gene expression in endothelial cells (EC) that can be modulated for instance by tumor growth factors or hypoxic culture conditions. […] The extent of capillary-like structures formation (density and size of structures) can be quantified by analysis of digitized images to determine the relative size and area covered by the tube-like network, using an image analysis software (Un-Scan-it, Empix Imaging). […]

EWQTDNCETCTCYET (cysteine pairing not given here) [PCK3145 derivative, PCK3145 derivative with acetylaminomethyl groups on the three cysteines]
change in MMP-9 levels compared to baseline ([1]; elevated MMP-9 category (patients A, B, C, D), after one cycle): significant decrease | MMP-9 level in plasma, D27C2 ([1]; elevated baseline MMP-9 patients, day 27 of cycle 2): 55.6 µg/L and 37.7 µg/L | MMP-9 level in plasma, D27C3 ([1]; elevated baseline MMP-9 patients): 54.5 µg/L | MMP-9 level in plasma, D27C4 ([1]; elevated baseline MMP-9 patients, day 27 of cycle 4): 39.4 µg/L | MMP-9 level in plasma, D27C3 ([1]; normal baseline MMP-9 patients): 101.8 µg/L | change in MMP-9 levels compared to baseline ([1]; normal value MMP-9 category (patients E, F, G, H, I), after one cycle): no significant decrease | decrease in MMP-9 levels compared to baseline ([1]; patient A, after cycle 1): up to 89% | decrease in MMP-9 levels compared to baseline ([1]; patient B, after cycle 1): 41% | reduction of baseline level of MMP-9 ([1]; patient B, treatment cycle 2): 64% | reduction of baseline level of MMP-9 ([1]; patient B, treatment cycle 3): 65% | reduction of baseline level of MMP-9 ([1]; patient B, treatment cycle 4): 75% | decrease in MMP-9 levels compared to baseline ([1]; patient C, cycle 1): 90% | reduction in MMP-9 levels ([1]; patient C, cycle 2): 76% | decrease in MMP-9 levels compared to baseline ([1]; patient D, cycle 1): 34% | change in MMP-9 levels compared to baseline ([1]; patient E, after 3 cycles): no MMP-9 decrease | change in MMP-9 levels compared to baseline ([1]; patients E and G, after 2 cycles): no decrease | capillary-like structure formation (tubulogenesis) (HUVEC): negatively affects tubulogenesis
